assay: Fluorescence excitation/emission of the styryl dye library compounds; format: physicochemical; conditions: EX/EM peak no. 1

In order of falling “EM(nm)” value:
1. C[n+]1ccc(C=CC=Cc2ccccc2[N+](=O)[O-])cc1.[I-] [Compound A36]  700 nm
2. CN(C)c1ccc(C=CC=Cc2cccc[n+]2C)cc1.[I-] [Compound C37]  680 nm
3. CN(C)c1ccc(/C=C/C=C/c2cc[n+](C)c3ccccc23)cc1.[I-] [Compound G37]  670 nm
4. C[n+]1ccc(C=Cc2ccc3ccc4cccc5ccc2c3c45)c2ccccc21.[I-] [Compound G41]  660 nm
5. CN(C)c1ccc(C=Cc2cc[n+](C)c(Br)c2)c2ccccc12.[I-] [Compound F27]  640 nm
6. C[n+]1ccc(C=Cc2ccccn2)cc1Br.[I-] [Compound F40]  640 nm
7. C[n+]1c(/C=C/c2ccccc2)ccc2ccccc21.[I-] [Compound H2]  640 nm
8. C[n+]1c(C=Cc2cccc(Br)c2)ccc2ccccc21.[I-] [Compound H4]  640 nm
9. CN(C)c1ccc(C=Cc2cccc[n+]2C)c2ccccc12.[I-] [Compound C27]  620 nm
10. CCc1ccc(/C=C/c2ccc(N(C)C)c3ccccc23)[n+](C)c1.[I-] [Compound E27]  620 nm
11. COc1cc(C=Cc2cc[n+](C)c3ccccc23)cc(OC)c1OC.[I-] [Compound G13]  620 nm
12. C[n+]1ccc(/C=C/c2ccc3c(c2)Cc2ccccc2-3)c2ccccc21.[I-] [Compound G28]  620 nm
13. CC(=O)Nc1ccc(C=Cc2cc[n+](C)cc2)cc1.[I-] [Compound A18]  610 nm
14. CN(C)c1ccc(C=Cc2cc[n+](C34CC5CC(CC(C5)C3)C4)cc2)cc1.[Br-] [Compound B19]  610 nm
15. C(=Cc1c2ccccc2cc2ccccc12)c1cc[n+](C23CC4CC(CC(C4)C2)C3)cc1.[Br-] [Compound B34]  610 nm
16. C[n+]1ccccc1C=Cc1ccccn1.[I-] [Compound C40]  610 nm
17. CCc1ccc(C=Cc2ccccn2)[n+](C)c1.[I-] [Compound E40]  610 nm
18. CN(C)c1ccc(C=Cc2cc[n+](C)c(Br)c2)cc1.[I-] [Compound F19]  610 nm
19. C[n+]1ccc(C=Cc2ccc3ccccc3c2)cc1.[I-] [Compound A33]  600 nm
20. COc1ccc(C=Cc2cc[n+](C)c3ccccc23)cc1OC.[I-] [Compound G11]  600 nm
21. C[n+]1ccc(C=Cc2ccc(F)cc2)cc1.[I-] [Compound A30]  590 nm
22. Fc1ccc(C=Cc2cc[n+](C34CC5CC(CC(C5)C3)C4)cc2)cc1.[Br-] [Compound B30]  590 nm
23. C[n+]1ccc(/C=C/c2ccc3c(c2)OCO3)c2ccccc21.[I-] [Compound G39]  590 nm
24. CN(C)c1ccc(C=CC=Cc2cc[n+](C)cc2)cc1.[I-] [Compound A37]  580 nm
25. CC(=O)Nc1ccc(C=Cc2cc[n+](C34CC5CC(CC(C5)C3)C4)cc2)cc1.[Br-] [Compound B18]  580 nm
26. COc1cc(OC)c(OC)cc1C=Cc1cccc[n+]1C.[I-] [Compound C38]  580 nm
27. Brc1ccc(C=Cc2cc[n+](C34CC5CC(CC(C5)C3)C4)cc2)cc1.[Br-] [Compound B5]  570 nm
28. C[n+]1ccc(C=Cc2ccccc2F)cc1.[I-] [Compound A29]  560 nm
29. Fc1ccccc1C=Cc1cc[n+](C23CC4CC(CC(C4)C2)C3)cc1.[Br-] [Compound B29]  560 nm
30. CCc1ccc(C=Cc2cccc3ccccc23)[n+](C)c1.[I-] [Compound E32]  560 nm
31. CCc1ccc(C=Cc2cc(OC)c(OC)cc2OC)[n+](C)c1.[I-] [Compound E38]  560 nm
32. COc1ccc(C=Cc2cc[n+](C)c3ccccc23)cc1O.[I-] [Compound G15]  560 nm
33. C[n+]1ccc(/C=C/c2ccc(O)cc2)c2ccccc21.[I-] [Compound G16]  560 nm
34. C[n+]1ccc(C=Cc2ccccc2F)c2ccccc21.[I-] [Compound G29]  560 nm
35. COc1cc(C=Cc2cc[n+](C)cc2)cc(OC)c1OC.[I-] [Compound A13]  550 nm
36. COc1ccc(C=Cc2cc[n+](C34CC5CC(CC(C5)C3)C4)cc2)c2ccccc12.[Br-] [Compound B14]  550 nm
37. C[n+]1ccccc1C=Cc1cccc2ccccc12.[I-] [Compound C32]  550 nm
38. C[n+]1ccc(C=Cc2ccc(Br)cc2)cc1.[I-] [Compound A5]  540 nm
39. C[n+]1ccc(C=Cc2ccc([N+](=O)[O-])cc2)cc1.[I-] [Compound A22]  540 nm
40. COc1cc(OC)c(OC)cc1C=Cc1cc[n+](C)cc1.[I-] [Compound A38]  540 nm
41. C[n+]1ccc(C=Cc2ccc3c(c2)OCO3)cc1.[I-] [Compound A39]  540 nm
42. COc1cc(C=Cc2cccc[n+]2C)cc(OC)c1OC.[I-] [Compound C13]  540 nm
43. CCc1ccc(C=Cc2cc(OC)c(OC)c(OC)c2)[n+](C)c1.[I-] [Compound E13]  540 nm
44. COc1cc(OC)c(OC)cc1C=Cc1cc[n+](C)c(Br)c1.[I-] [Compound F38]  540 nm
45. C[n+]1ccc(/C=C/c2ccc3c(c2)OCO3)cc1Br.[I-] [Compound F39]  540 nm
46. C(=Cc1ccc(OCc2ccccc2)c(OCc2ccccc2)c1)c1cc[n+](C23CC4CC(CC(C4)C2)C3)cc1.[Br-] [Compound B12]  530 nm
47. COc1ccc(C=Cc2cccc[n+]2C)c2ccccc12.[I-] [Compound C14]  530 nm
48. C[n+]1ccc(C=Cc2cccc3ccccc23)cc1Br.[I-] [Compound F32]  530 nm
49. C[n+]1ccccc1C=Cc1ccc2c(c1)OCO2.[I-] [Compound C39]  520 nm
50. COc1ccccc1C=Cc1cc[n+](C)c(Br)c1.[I-] [Compound F9]  520 nm
51. COc1ccc(/C=C/c2cc[n+](C)c(Br)c2)cc1.[I-] [Compound F10]  520 nm
52. COc1ccc(C=Cc2cc[n+](C)cc2)cc1O.[I-] [Compound A15]  510 nm
53. C[n+]1ccc(C=Cc2ccc(O)cc2)cc1.[I-] [Compound A16]  510 nm
54. CCc1ccc(C=Cc2ccc(OCc3ccccc3)c(OCc3ccccc3)c2)[n+](C)c1.[I-] [Compound E12]  510 nm
55. CCc1ccc(/C=C/c2c[nH]c3ccccc23)[n+](C)c1.[I-] [Compound E24]  510 nm
56. C[n+]1ccc(C=Cc2ccc(O)cc2)cc1Br.[I-] [Compound F16]  510 nm
57. COc1ccccc1C=Cc1cc[n+](C23CC4CC(CC(C4)C2)C3)cc1.[Br-] [Compound B9]  500 nm
58. COc1ccc(C=Cc2cccc[n+]2C)cc1O.[I-] [Compound C15]  500 nm
59. CCc1ccc(/C=C/c2ccc3c(c2)OCO3)[n+](C)c1.[I-] [Compound E39]  500 nm

In order of falling “EX(nm)” value:
1. C[n+]1ccc(C=Cc2ccccn2)cc1Br.[I-] [Compound F40]  540 nm
2. CN(C)c1ccc(/C=C/C=C/c2cc[n+](C)c3ccccc23)cc1.[I-] [Compound G37]  530 nm
3. C[n+]1c(C=Cc2cccc(Br)c2)ccc2ccccc21.[I-] [Compound H4]  530 nm
4. CN(C)c1ccc(C=CC=Cc2cccc[n+]2C)cc1.[I-] [Compound C37]  520 nm
5. C[n+]1ccc(C=Cc2ccc3ccc4cccc5ccc2c3c45)c2ccccc21.[I-] [Compound G41]  500 nm
6. C(=Cc1c2ccccc2cc2ccccc12)c1cc[n+](C23CC4CC(CC(C4)C2)C3)cc1.[Br-] [Compound B34]  460 nm
7. COc1ccc(/C=C/c2cc[n+](C)c(Br)c2)cc1.[I-] [Compound F10]  460 nm
8. CN(C)c1ccc(C=Cc2cc[n+](C)c(Br)c2)c2ccccc12.[I-] [Compound F27]  460 nm
9. COc1cc(OC)c(OC)cc1C=Cc1cc[n+](C)c(Br)c1.[I-] [Compound F38]  460 nm
10. CN(C)c1ccc(C=Cc2cccc[n+]2C)c2ccccc12.[I-] [Compound C27]  450 nm
11. C[n+]1ccc(/C=C/c2ccc3c(c2)Cc2ccccc2-3)c2ccccc21.[I-] [Compound G28]  450 nm
12. C[n+]1ccc(C=Cc2ccccc2F)c2ccccc21.[I-] [Compound G29]  450 nm
13. C[n+]1ccc(C=CC=Cc2ccccc2[N+](=O)[O-])cc1.[I-] [Compound A36]  430 nm
14. C[n+]1ccc(C=Cc2ccc3c(c2)OCO3)cc1.[I-] [Compound A39]  430 nm
15. CCc1ccc(/C=C/c2c[nH]c3ccccc23)[n+](C)c1.[I-] [Compound E24]  430 nm
16. CCc1ccc(/C=C/c2ccc(N(C)C)c3ccccc23)[n+](C)c1.[I-] [Compound E27]  430 nm
17. CCc1ccc(C=Cc2cc(OC)c(OC)cc2OC)[n+](C)c1.[I-] [Compound E38]  430 nm
18. C[n+]1ccc(/C=C/c2ccc(O)cc2)c2ccccc21.[I-] [Compound G16]  430 nm
19. C[n+]1ccc(/C=C/c2ccc3c(c2)OCO3)c2ccccc21.[I-] [Compound G39]  430 nm
20. CC(=O)Nc1ccc(C=Cc2cc[n+](C)cc2)cc1.[I-] [Compound A18]  420 nm
21. CC(=O)Nc1ccc(C=Cc2cc[n+](C34CC5CC(CC(C5)C3)C4)cc2)cc1.[Br-] [Compound B18]  420 nm
22. COc1cc(OC)c(OC)cc1C=Cc1cccc[n+]1C.[I-] [Compound C38]  420 nm
23. CCc1ccc(C=Cc2cccc3ccccc23)[n+](C)c1.[I-] [Compound E32]  420 nm
24. COc1cc(C=Cc2cc[n+](C)c3ccccc23)cc(OC)c1OC.[I-] [Compound G13]  420 nm
25. COc1cc(OC)c(OC)cc1C=Cc1cc[n+](C)cc1.[I-] [Compound A38]  410 nm
26. C[n+]1ccc(C=Cc2ccc(O)cc2)cc1Br.[I-] [Compound F16]  410 nm
27. C[n+]1ccc(C=Cc2cccc3ccccc23)cc1Br.[I-] [Compound F32]  410 nm
28. C[n+]1ccc(C=Cc2ccc([N+](=O)[O-])cc2)cc1.[I-] [Compound A22]  400 nm
29. CCc1ccc(C=Cc2ccc(OCc3ccccc3)c(OCc3ccccc3)c2)[n+](C)c1.[I-] [Compound E12]  400 nm
30. COc1ccccc1C=Cc1cc[n+](C)c(Br)c1.[I-] [Compound F9]  400 nm
31. COc1cc(C=Cc2cc[n+](C)cc2)cc(OC)c1OC.[I-] [Compound A13]  390 nm
32. COc1ccccc1C=Cc1cc[n+](C23CC4CC(CC(C4)C2)C3)cc1.[Br-] [Compound B9]  390 nm
33. COc1ccc(C=Cc2cccc[n+]2C)c2ccccc12.[I-] [Compound C14]  390 nm
34. COc1ccc(C=Cc2cccc[n+]2C)cc1O.[I-] [Compound C15]  390 nm
35. C[n+]1ccccc1C=Cc1cccc2ccccc12.[I-] [Compound C32]  390 nm
36. C[n+]1ccccc1C=Cc1ccccn1.[I-] [Compound C40]  390 nm
37. CCc1ccc(C=Cc2ccccn2)[n+](C)c1.[I-] [Compound E40]  390 nm
38. Brc1ccc(C=Cc2cc[n+](C34CC5CC(CC(C5)C3)C4)cc2)cc1.[Br-] [Compound B5]  385 nm
39. COc1cc(C=Cc2cccc[n+]2C)cc(OC)c1OC.[I-] [Compound C13]  380 nm
40. CCc1ccc(C=Cc2cc(OC)c(OC)c(OC)c2)[n+](C)c1.[I-] [Compound E13]  380 nm
41. C[n+]1ccc(C=Cc2ccc(Br)cc2)cc1.[I-] [Compound A5]  375 nm
42. C[n+]1ccccc1C=Cc1ccc2c(c1)OCO2.[I-] [Compound C39]  340 nm

In the case of `C[n+]1ccc(C=Cc2ccc(O)cc2)cc1.[I-]` [Compound A16], the “EX(nm)” value is reported as 390-420 nm.
For `C[n+]1ccc(C=Cc2ccccc2F)cc1.[I-]` [Compound A29], the “EX(nm)” value was 400-420 nm.
For `C[n+]1ccc(C=Cc2ccc(F)cc2)cc1.[I-]` [Compound A30], the “EX(nm)” value was 420-440 nm.
For `C[n+]1ccc(C=Cc2ccc3ccccc3c2)cc1.[I-]` [Compound A33], the “EX(nm)” value was 360-420 nm.
In the case of `CN(C)c1ccc(C=CC=Cc2cc[n+](C)cc2)cc1.[I-]` [Compound A37], the “EX(nm)” value is reported as 460-490 nm.
In the case of `C(=Cc1ccc(OCc2ccccc2)c(OCc2ccccc2)c1)c1cc[n+](C23CC4CC(CC(C4)C2)C3)cc1.[Br-]` [Compound B12], the “EX(nm)” value is reported as 340-444 nm.
For `COc1ccc(C=Cc2cc[n+](C34CC5CC(CC(C5)C3)C4)cc2)c2ccccc12.[Br-]` [Compound B14], the “EX(nm)” value was 360-450 nm.
In the case of `CN(C)c1ccc(C=Cc2cc[n+](C34CC5CC(CC(C5)C3)C4)cc2)cc1.[Br-]` [Compound B19], the “EX(nm)” value is reported as 380-540 nm.
With `Fc1ccccc1C=Cc1cc[n+](C23CC4CC(CC(C4)C2)C3)cc1.[Br-]` [Compound B29] the “EX(nm)” value was 400-420 nm.
In the case of `CCc1ccc(/C=C/c2ccc3c(c2)OCO3)[n+](C)c1.[I-]` [Compound E39], the “EX(nm)” value is reported as 390-420 (broad) nm.
With `CN(C)c1ccc(C=Cc2cc[n+](C)c(Br)c2)cc1.[I-]` [Compound F19] the “EX(nm)” value was 440(broad) nm.
With `C[n+]1ccc(/C=C/c2ccc3c(c2)OCO3)cc1Br.[I-]` [Compound F39] the “EX(nm)” value was 400-420 nm.
In the case of `COc1ccc(C=Cc2cc[n+](C)c3ccccc23)cc1OC.[I-]` [Compound G11], the “EX(nm)” value is reported as 420-480 nm.
For `COc1ccc(C=Cc2cc[n+](C)c3ccccc23)cc1O.[I-]` [Compound G15], the “EX(nm)” value was 420-460 nm.
In the case of `C[n+]1c(/C=C/c2ccccc2)ccc2ccccc21.[I-]` [Compound H2], the “EX(nm)” value is reported as 480(weak) nm.

Source: patent US20050054006A1, “Combinatorial fluorescent library based on the styryl scaffold” (New York University, priority 2003, published 2005)
